IC50 data for 31 molecules are collected here from patent US12377084B2, “ERAP1 modulators” (GREY WOLF THERAPEUTICS LIMITED, priority 2019, dated 2025).

Counter-ions that a name gives are not always drawn.

In this test the target is T1, Purified ERAP1(37-941)-10 His (ERAP1) (Homo sapiens, UniProt Q9NZ08).
T1 construct: Purified ERAP1(37-941)-10 His (ERAP1); 10xHis (C)
T1 sequence (Q9NZ08 37-941): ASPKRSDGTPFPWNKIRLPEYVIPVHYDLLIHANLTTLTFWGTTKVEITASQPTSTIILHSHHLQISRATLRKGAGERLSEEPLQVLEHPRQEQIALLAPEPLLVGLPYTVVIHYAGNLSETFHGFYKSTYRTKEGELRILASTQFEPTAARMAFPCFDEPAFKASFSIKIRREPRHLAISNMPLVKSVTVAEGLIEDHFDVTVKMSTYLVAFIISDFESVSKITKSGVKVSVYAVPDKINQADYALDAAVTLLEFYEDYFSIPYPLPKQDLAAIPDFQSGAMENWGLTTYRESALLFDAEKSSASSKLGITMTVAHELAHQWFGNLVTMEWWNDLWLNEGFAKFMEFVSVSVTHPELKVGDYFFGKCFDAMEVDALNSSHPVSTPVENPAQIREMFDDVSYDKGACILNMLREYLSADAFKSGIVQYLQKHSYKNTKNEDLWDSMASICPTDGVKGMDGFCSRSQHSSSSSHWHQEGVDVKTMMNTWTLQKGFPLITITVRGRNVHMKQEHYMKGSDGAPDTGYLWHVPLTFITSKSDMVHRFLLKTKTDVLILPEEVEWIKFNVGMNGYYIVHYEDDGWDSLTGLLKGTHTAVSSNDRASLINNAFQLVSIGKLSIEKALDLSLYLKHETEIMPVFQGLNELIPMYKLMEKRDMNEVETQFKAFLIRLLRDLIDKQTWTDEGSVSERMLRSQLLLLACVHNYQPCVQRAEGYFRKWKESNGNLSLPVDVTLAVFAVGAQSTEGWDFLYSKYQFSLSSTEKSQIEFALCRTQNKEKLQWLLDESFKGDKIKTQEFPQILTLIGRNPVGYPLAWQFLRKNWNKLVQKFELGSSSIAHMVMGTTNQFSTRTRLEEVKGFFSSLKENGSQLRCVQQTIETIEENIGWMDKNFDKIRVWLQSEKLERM
Briefly: ERAP1 mediated hydrolysis of an amide substrate in a biochemical system (10 mer inhibition assay). The following applies: 10-mer substrate, incubated at 23° C. for 1 h; excitation 279 nm, emission 355 nm; read-out: IC50 vs Decapeptide WRVYEKC(Dnp)ALK-acid (where Dnp is Dinitrophenyl maleimide) (10-mer). The text has this: This peptide has minimal fluorescence as the N-terminal tryptophan residue's fluorescence is quenched by the dinitrophenol (DNP) residue within the peptide. However, as ERAP1 hydrolyses the N-terminal amide bond and tryptophan is released this internal quenching is lost and the reaction is monitored by the increase in tryptophan fluorescence over the course of the assay. For the purposes of this application this assay is referred to as the “10 mer inhibition assay” and compound potencies are calculated and expressed as IC50 as would be familiar to a person skilled in the art.
Biological Assay 1: ERAP1 Mediated Hydrolysis of an Amide Substrate Measured in a Biochemical System
1× Assay buffer (AB): 25 mM Bis-tris propane, 0.05% w/v
Hydroxypropylmethylcellulose pH 7.75 made with Optima grade water
Decapeptide WRVYEKC(Dnp)ALK-acid (where Dnp is Dinitrophenyl maleimide) (10-mer)
12.5 μL ERAP1 enzyme in 1×AB was combined with 250 nL test compound in DMSO. 12.5 μL of either 240 μM L-AMC in 1×AB or 100 μM 10-mer in 1×AB was added to the reaction and incubated at 23° C. for 1 h. For detection, plates were read at excitation 365 nm and emission 442 nm (L-AMC) or excitation 279 nm and emission 355 nm (10-mer). Compound IC50 was determined using a 4-parameter equation.
On to `O=C(O)c1ccc(C2CC2)c(S(=O)(=O)Nc2cc(C(F)(F)F)ccc2C2CCCCN2)c1` (single isomer, unassigned; enantiomer 1) [Example 29, 4-cyclopropyl-3-(N-(2-(piperidin-2-yl)-5-(trifluoromethyl)phenyl)sulfamoyl)benzoic Acid Enantiomer 1], for which the IC50 is under 100 nM.

For the molecule `O=C(O)c1ccc(C2CC2)c(S(=O)(=O)Nc2cc(C(F)(F)F)ccc2C2CCCCN2)c1` (single isomer, unassigned; enantiomer 2) [Example 30, 4-cyclopropyl-3-(N-(2-(piperidin-2-yl)-5-(trifluoromethyl)phenyl)sulfamoyl)benzoic Acid Enantiomer 2], the IC50 was under 100 nM.

As to `COc1ccc(C(=O)O)cc1S(=O)(=O)Nc1cc(C(F)(F)F)ccc1C1CCCN(C)C1` (stereo not shown) [Example 1, 4-methoxy-3-(N-(2-(1-methylpiperidin-3-yl)-5-(trifluoromethyl)phenyl)sulfamoyl)benzoic Acid], the IC50 was over 500 nM.

In the case of `COc1ccc(C(=O)O)cc1S(=O)(=O)Nc1cc(C(F)(F)F)ccc1C1CCCNC1` (stereo not shown) [Example 2, 4-methoxy-3-(N-(2-(piperidin-3-yl)-5-(trifluoromethyl)phenyl)sulfamoyl)benzoic Acid Hydrochloride], the IC50 fell in the range of 100 to 500 nM.

For `CCc1ccc(C(=O)O)cc1S(=O)(=O)Nc1cc(C(F)(F)F)ccc1C1CCCNC1` (stereo not shown) [Example 3, 4-ethyl-3-(N-(2-(piperidin-3-yl)-5-(trifluoromethyl)phenyl)sulfamoyl)benzoic Acid Hydrochloride], the IC50 was under 100 nM.

Regarding `CCc1ccc(C(=O)O)cc1S(=O)(=O)Nc1cc(-n2cnnn2)ccc1C1CCCCC1` [Example 4, 3-(N-(2-cyclohexyl-5-(tetrazol-1-yl)phenyl)sulfamoyl)-4-ethylbenzoic Acid], the IC50 is under 100 nM.

As for `CCc1ccc(C(=O)O)cc1S(=O)(=O)Nc1cc(C(F)(F)F)ccc1C1CCCN1` (stereo not shown) [Example 5, 4-ethyl-3-(N-(2-(pyrrolidin-2-yl)-5-(trifluoromethyl)phenyl)sulfamoyl)benzoic Acid], the half-maximal inhibitory concentration (IC50) fell in the range of 100 to 500 nM.

On to `CCc1ccc(C(=O)O)cc1S(=O)(=O)Nc1cc(C(F)(F)F)ccc1C1CCCN1C` (stereo not shown) [Example 6, 4-ethyl-3-(N-(2-(1-methylpyrrolidin-2-yl)-5-(trifluoromethyl)phenyl)sulfamoyl)benzoic], for which the IC50 fell in the range of 100 to 500 nM.

For `CCc1ccc(C(=O)O)cc1S(=O)(=O)Nc1cc(C(F)(F)F)ccc1C1CCNC1` (stereo not shown) [Example 7, 4-ethyl-3-(N-(2-(pyrrolidin-3-yl)-5-(trifluoromethyl)phenyl)sulfamoyl)benzoic Acid], the IC50 was under 100 nM.

Turning to `CCc1ccc(C(=O)O)cc1S(=O)(=O)Nc1cc(C(F)(F)F)ccc1C1CCCCN1` (stereo not shown) [Example 8, 4-ethyl-3-(N-(2-(piperidin-2-yl)-5-(trifluoromethyl)phenyl)sulfamoyl)benzoic Acid], the IC50 is under 100 nM.

As for `CCc1ccc(C(=O)O)cc1S(=O)(=O)Nc1cc(C(F)(F)F)ccc1C1CCCCC1` [Example 9, 3-(N-(2-cyclohexyl-5-(trifluoromethyl)phenyl)sulfamoyl)-4-ethylbenzoic Acid], the IC50 is under 100 nM.

For the molecule `CCc1ccc(C(=O)O)cc1S(=O)(=O)Nc1cc(C(F)(F)F)ccc1C1CCCCN1C` (stereo not shown) [Example 10, 4-ethyl-3-(N-(2-(1-methylpiperidin-2-yl)-5-(trifluoromethyl)phenyl)sulfamoyl)benzoic Acid], the IC50 is under 100 nM.

On to `CCc1ccc(C(=O)O)cc1S(=O)(=O)Nc1cc(S(C)(=O)=O)ccc1C1CCCCC1` [Example 11, 3-(N-(2-cyclohexyl-5-(methylsulfonyl)phenyl)sulfamoyl)-4-ethylbenzoic Acid], for which the IC50 was under 100 nM.

For the molecule `O=C(O)c1ccc(C2CC2)c(S(=O)(=O)Nc2cc(C(F)(F)F)ccc2C2CCCNC2)c1` (stereo not shown) [Example 12, 4-cyclopropyl-3-(N-(2-(piperidin-3-yl)-5-(trifluoromethyl)phenyl)sulfamoyl)benzoic Acid], the IC50 was under 100 nM.

With `CCc1ccc(C(=O)O)cc1S(=O)(=O)Nc1cc(C#N)ccc1C1CCCCC1` [Example 13, 3-(N-(5-cyano-2-cyclohexylphenyl)sulfamoyl)-4-ethylbenzoic Acid], the IC50 is under 100 nM.

As for `CCc1ccc(C(=O)O)cc1S(=O)(=O)Nc1cc(S(C)(=O)=O)ccc1C1CCCNC1` (stereo not shown) [Example 14, 4-ethyl-3-(N-(5-(methylsulfonyl)-2-(piperidin-3-yl)phenyl)sulfamoyl)benzoic Acid], the IC50 is under 100 nM.

On to `CCc1ccc(C(=O)O)cc1S(=O)(=O)Nc1cc(S(C)(=O)=O)ccc1C1CCCCN1` (stereo not shown) [Example 15, 4-ethyl-3-(N-(5-(methylsulfonyl)-2-(piperidin-2-yl)phenyl)sulfamoyl)benzoic Acid], for which the IC50 is under 100 nM.

For the molecule `O=C(O)c1ccc(C2CC2)c(S(=O)(=O)Nc2cc(C(F)(F)F)ccc2C2CCCCN2)c1` (stereo not shown) [Example 16, 4-cyclopropyl-3-(N-(2-(piperidin-2-yl)-5-(trifluoromethyl)phenyl)sulfamoyl)benzoic Acid], the IC50 was under 100 nM.

For the molecule `CS(=O)(=O)c1ccc(C2CCCCC2)c(NS(=O)(=O)c2cc(C(=O)O)ccc2C2CC2)c1` [Example 17, 3-(N-(2-cyclohexyl-5-(methylsulfonyl)phenyl)sulfamoyl)-4-cyclopropylbenzoic Acid], the IC50 was under 100 nM.

Turning to `N#Cc1ccc(C2CCCCC2)c(NS(=O)(=O)c2cc(C(=O)O)ccc2C2CC2)c1` [Example 18, 3-(N-(5-cyano-2-cyclohexylphenyl)sulfamoyl)-4-cyclopropylbenzoic Acid], the IC50 is under 100 nM.

Turning to `N#Cc1ccc(C2CCCCN2)c(NS(=O)(=O)c2cc(C(=O)O)ccc2C2CC2)c1` (stereo not shown) [Example 19, 3-(N-(5-cyano-2-(piperidin-2-yl)phenyl)sulfamoyl)-4-cyclopropylbenzoic Acid], the IC50 was under 100 nM.

With `CS(=O)(=O)c1ccc(C2CCCCN2)c(NS(=O)(=O)c2cc(C(=O)O)ccc2C2CC2)c1` (stereo not shown) [Example 20, 4-cyclopropyl-3-(N-(5-(methylsulfonyl)-2-(piperidin-2-yl)phenyl)sulfamoyl)benzoic Acid], the IC50 is under 100 nM.

Consider `N#Cc1cc(NS(=O)(=O)c2cc(C(=O)O)ccc2C2CC2)c(C2CCCCN2)cc1F` (stereo not shown) [Example 21, 3-(N-(5-cyano-4-fluoro-2-(piperidin-2-yl)phenyl)sulfamoyl)-4-cyclopropylbenzoic Acid], for which the IC50 was under 100 nM.

As to `N#Cc1cc(NS(=O)(=O)c2cc(C(=O)O)ccc2C2CC2)c(C2CCCCN2)cc1Cl` (stereo not shown) [Example 22, 3-(N-(4-chloro-5-cyano-2-(piperidin-2-yl)phenyl)sulfamoyl)-4-cyclopropylbenzoic Acid], the IC50 is under 100 nM.

For `O=C(O)c1ccc(C2CC2)c(S(=O)(=O)Nc2cc(-n3cnnn3)ccc2C2CCCCN2)c1` (stereo not shown) [Example 23, 4-cyclopropyl-3-(N-(2-(piperidin-2-yl)-5-(tetrazol-1-yl)phenyl)sulfamoyl)benzoic Acid], the IC50 was under 100 nM.

Consider `O=C(O)c1ccc(C2CC2)c(S(=O)(=O)Nc2cc(C(F)(F)F)c(F)cc2C2CCCCN2)c1` (stereo not shown) [Example 24, 4-cyclopropyl-3-(N-(4-fluoro-2-(piperidin-2-yl)-5-(trifluoromethyl)phenyl)sulfamoyl)benzoic Acid], for which the IC50 was under 100 nM.

Consider `CS(=O)(=O)c1cc(NS(=O)(=O)c2cc(C(=O)O)ccc2C2CC2)c(C2CCCCN2)cc1F` (stereo not shown) [Example 25, 4-cyclopropyl-3-(N-(4-fluoro-5-(methylsulfonyl)-2-(piperidin-2-yl)phenyl)sulfamoyl)benzoic Acid Hydrochloride], for which the IC50 is under 100 nM.

Turning to `O=C(O)c1ccc(C2CC2)c(S(=O)(=O)Nc2cc(C(F)(F)F)c(Cl)cc2C2CCCCN2)c1` (stereo not shown) [Example 26, 3-(N-(4-chloro-2-(piperidin-2-yl)-5-(trifluoromethyl)phenyl)sulfamoyl)-4-cyclopropylbenzoic Acid], the IC50 is under 100 nM.

`CS(=O)(=O)c1cc(NS(=O)(=O)c2cc(C(=O)O)ccc2C2CC2)c(C2CCCCN2)cc1Cl` (stereo not shown) [Example 27, 3-(N-(4-chloro-5-(methylsulfonyl)-2-(piperidin-2-yl)phenyl)sulfamoyl)-4-cyclopropylbenzoic Acid Hydrochloride]: the IC50 was under 100 nM.

On to `O=C(O)c1ccc(C2CC2)c(S(=O)(=O)Nc2cc(-c3ccns3)ccc2C2CCCCN2)c1` (stereo not shown) [Example 28, 4-cyclopropyl-3-(N-(5-(isothiazol-5-yl)-2-(piperidin-2-yl)phenyl)sulfamoyl)benzoic Acid], for which the IC50 was under 100 nM.

Take `O=C(O)c1cc(F)c(C2CC2)c(S(=O)(=O)Nc2cc(C(F)(F)F)ccc2C2CCCCN2)c1` (stereo not shown) [Example 31, 4-cyclopropyl-3-fluoro-5-(N-(2-(piperidin-2-yl)-5-(trifluoromethyl)phenyl)sulfamoyl)benzoic Acid]: the IC50 is under 100 nM.

By IC50 is commonly meant the concentration that gives 50% inhibition.
